Results on 30 compounds are retold here after patent US20100210635A1, “RENIN INHIBITORS” (Takeda Pharmaceutical Company Limited, priority 2006, published 2010).

In this experiment the target is T1, Recombinant human renin (Homo sapiens, UniProt P00797).
T1 construct: isolate the active form (residues 67-406); made in house; host or cells: FreeStyle 293-F cells (transient expression of pcDNA3.1(+)/hREN)
T1 sequence (P00797 67-406): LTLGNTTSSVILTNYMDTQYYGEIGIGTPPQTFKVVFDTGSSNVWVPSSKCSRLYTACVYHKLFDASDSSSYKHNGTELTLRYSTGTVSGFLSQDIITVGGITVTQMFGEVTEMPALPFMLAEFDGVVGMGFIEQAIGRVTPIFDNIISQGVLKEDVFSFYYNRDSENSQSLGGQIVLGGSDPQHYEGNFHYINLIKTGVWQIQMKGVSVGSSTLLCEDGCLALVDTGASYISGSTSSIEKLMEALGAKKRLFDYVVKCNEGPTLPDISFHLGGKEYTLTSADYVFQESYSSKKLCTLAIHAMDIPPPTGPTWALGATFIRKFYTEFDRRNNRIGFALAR
Briefly: In vitro enzymatic activity assay of Renin inhibitors (fluorescence, QXL520/HiLyteFluo488 peptide substrate). As to conditions: recombinant human renin 3 nM, 1 μM substrate, 37° C., pH 7.4; values given as ranges; read-out: IC50 of Exemplified Compounds Against Renin. It counts as biochemical. The source says:
Test compounds in varying concentrations may be reacted with recombinant human renin in the presence of substrate, e.g., QXL520-γ-Abu-Ile-His-Pro-Phe-His-Leu-Val-Ile-His-Thr-Lys (HiLyteFluo488)-Arg-OH (Anaspec, San Jose, Calif.). The reaction can be followed kinetically using fluorescence (excitation λ=485 nm; emission λ=538 nm). Inhibition constants (IC50) may be calculated by non-linear curve fitting of the compound concentrations and fluorescence intensities to the standard IC50 equation.
Solutions of test compounds in varying concentrations (<2 mM final concentration) are prepared in dimethyl sulfoxide (DMSO) and then diluted into assay buffer comprising 50 mM Hepes, 1 mM EDTA, 1 mM DTT, 0.1 mg/ml BSA, 0.01% Brij35, pH 7.4. Alternatively, the assay can be performed with a high BSA concentration, wherein the buffer contains an additional 2% BSA.
Recombinant human renin (3 nM final concentration) is added to the dilutions and pre-incubated with the compounds for 10 minutes at 37° C. As described in Examples A-C above, human Renin can be obtained by expressing preprorenin (residue 1-406) in mammalian cells, treating the prorenin (residues 24-406) contained in the culture supernatant with trypsin, and isolate the active form (residues 67-406). After pre-incubation, the reaction is initiated with 1 μM of substrate QXL520-γ-Abu-Ile-His-Pro-Phe-His-Leu-Val-Ile-His-Thr-Lys (HiLyteFluo488)-Arg-OH (Anaspec, San Jose, Calif.). The final DMSO in the assay is 5%. The total volume of the reaction mixture is 20 μL, which can be placed on Greiner 384-well small volume plates.
Renin activity may be determined via fluorescence (excitation λ=485 nm; emission λ=538 nm), e.g., on a Molecular Devices SPECTROmax GEMINI XPS. The fluorescence intensity is determined upon the addition of substrate and determined again after incubation at 37° C. for one hour. The fluorescence intensity of a blank (no inhibition) using vehicle alone is also determined. Renin activity is linearly proportional to the change in fluorescence observed (final−initial).
The percent inhibition of Renin at a given compound concentration is defined as:
100%×[1−(Fcompound/Fblank)]
where Fcompound is the observed fluorescence at a given concentration of test compound and Fblank is the observed fluorescence in the presence of vehicle alone.
The pIC50 value (negative log of the molar concentration of the compound that produces 50% inhibition) of a test compound is calculated by non-linear least squares curve fitting of the equation: […]
to percent inhibition versus compound concentration. The 50% inhibitory concentration (IC50) of a test compound is calculated by raising 10 to the negative pIC50 (10^−pIC50).

The structures appear in SMILES notation.

Take `O=C(CC(Cc1ccccc1)c1ccco1)N1CCNC[C@H]1Cc1ccccc1` (stereo partly drawn) [Example 16, 1-((R)-2-Benzylpiperazin-1-yl)-3-(furan-2-yl)-4-phenylbutan-1-one]: the 50% inhibitory concentration (IC50) was 0.5 to 5 µM.

`CC(=O)NCc1c(C)cc(C)nc1Oc1ccccc1CCC(=O)N1CCNC[C@H]1Cc1ccccc1` [Example 39, (R)—N-((2-(2-(3-(2-benzylpiperazin-1-yl)-3-oxopropyl)phenoxy)-4,6-dimethylpyridin-3-yl)methyl)acetamide]: the IC50 is under 0.5 µM.

Consider `O=S(=O)(CC(c1ccccc1)c1ccccc1)N1CCNC[C@H]1Cc1ccccc1` [Example 13, (R)-2-Benzyl-1-(2,2-diphenylethylsulfonyl)piperazine], for which the IC50 lay in the range of 0.5 to 5 µM.

Consider `CCNC(=O)c1cccc(Oc2ccccc2CCC(=O)N2CCNC[C@H]2Cc2ccccc2)c1` [Example 34, (R)-3-(2-(3-(2-Benzylpiperazin-1-yl)-3-oxopropyl)phenoxy)-N-ethylbenzamide], for which the 50% inhibitory concentration (IC50) is 0.5 to 5 µM.

Take `O=C(CCc1ccccc1Oc1ccccc1)N1CCNC[C@H]1Cc1ccc(O)cc1` [Example 68, (R)-1-(2-(4-hydroxybenzyl)piperazin-1-yl)-3-(2-phenoxyphenyl)-propan-1-one]: the IC50 was under 0.5 µM.

As for `O=C(CCC(=O)N1CCNC[C@H]1Cc1ccccc1)c1ccccc1` [Example 5, (R)-1-(2-Benzylpiperazin-1-yl)-4-phenylbutane-1,4-dione], the IC50 was over 50 µM.

Regarding `O=C(Oc1ccccc1CCC(=O)N1CCNC[C@H]1Cc1ccccc1)c1ccccc1` [Example 21, (R)-2-(3-(2-Benzylpiperazin-1-yl)-3-oxopropyl)phenyl benzoate], the concentration for half-maximal inhibition (IC50) lay in the range of 0.5 to 5 µM.

`O=C(CCc1nc2ccccc2oc1=O)N1CCNC[C@H]1Cc1ccccc1` [Example 55, (R)-3-(3-(2-benzylpiperazin-1-yl)-3-oxopropyl)-2H-benzo[b][1,4]-oxazin-2-one]: the IC50 was 5 to 50 µM.

`CC(=O)NCCc1ccccc1Oc1ccccc1CCC(=O)N1CCNC[C@H]1Cc1ccc(O)cc1` [Example 79, (R)—N-(2-(2-(3-(2-(4-hydroxybenzyl)piperazin-1-yl)-3-oxopropyl)phenoxy)phenethyl)acetamide]: the IC50 was under 0.5 µM.

For `CC(=O)NCCc1ccccc1Cc1ccccc1CCC(=O)N1CCNC[C@H]1Cc1ccc(OCC(=O)NS(C)(=O)=O)cc1` [Example 91, (R)-2-(4-((1-(3-(2-(2-(2-acetamidoethyl)benzyl)phenyl)propanoyl)piperazin-2-yl)methyl)phenoxy)-N-(methylsulfonyl)acetamide], the IC50 was under 0.5 µM.

For the compound `COC(=O)COc1ccc(C[C@@H]2CNCCN2C(=O)CCc2ccccc2Cc2ccccc2CCNC(C)=O)cc1` [Example 92, (R)-Methyl 2-(4-((1-(3-(2-(2-(2-acetamidoethyl)benzyl)phenyl)propanoyl)piperazin-2-yl)methyl)phenoxy)acetate], the IC50 is under 0.5 µM.

In the case of `CC(=O)NCc1cc(C(F)(F)F)ccc1Oc1ccc(C)cc1CCC(=O)N1CCNC[C@H]1Cc1ccccc1` [Example 47, (R)—N-(2-(2-(3-(2-benzylpiperazin-1-yl)-3-oxopropyl)-4-methylphenoxy)-5-(trifluoromethyl)benzyl)acetamide], the IC50 was 0.5 to 5 µM.

In the case of `CC(=O)NCCc1ccccc1Oc1ccccc1CCC(=O)N1CCNC[C@H]1Cc1ccc(OCC(N)=O)cc1` [Example 81, (R)-2-(4-((1-(3-(2-(2-(2-acetamidoethyl)phenoxy)phenyl)propanoyl)piperazin-2-yl)methyl)phenoxy)acetamide], the 50% inhibitory concentration (IC50) is under 0.5 µM.

On to `Cc1ccc(C(CC(=O)N2CCNC[C@H]2Cc2ccccc2)N2Cc3ccccc3C2=O)cc1` (stereo partly drawn) [Example 14, 2-(3-((R)-2-Benzylpiperazin-1-yl)-3-oxo-1-p-tolylpropyl)isoindolin-1-one], for which the IC50 was 0.5 to 5 µM.

For the compound `O=C(CCCc1ccccc1)N1CCNC[C@H]1Cc1ccccc1` [Example 19, (R)-1-(2-Benzylpiperazin-1-yl)-4-phenylbutan-1-one], the IC50 lay within 5 to 50 µM.

Regarding `O=C(Cc1ccccc1Oc1ccccc1)N1CCNC[C@H]1Cc1ccccc1` [Example 8, (R)-1-(2-Benzylpiperazin-1-yl)-2-(2-phenoxyphenyl)ethanone], the IC50 fell in the range of 5 to 50 µM.

Consider `CC(=O)NCCc1ccccc1Oc1ccc(C)cc1CCC(=O)N1CCNC[C@H]1Cc1ccccc1` [Example 26, (R)—N-(2-(2-(3-(2-Benzylpiperazin-1-yl)-3-oxopropyl)-4-methylphenoxy)phenethyl)acetamide], for which the IC50 is under 0.5 µM.

With `C[C@@H](CC(=O)N1CCNC[C@H]1Cc1ccccc1)c1ccccc1` [Example 18, (S)-1-((R)-2-Benzylpiperazin-1-yl)-3-phenylbutan-1-one], the IC50 is 5 to 50 µM.

Regarding `O=C(COc1ccccc1Br)N1CCNC[C@H]1Cc1ccccc1` [Example 4, (R)-1-(2-Benzylpiperazin-1-yl)-2-(2-bromophenoxy)ethanone], the IC50 was in the range of 5 to 50 µM.

With `CC(=O)NCc1cc(C)ccc1Oc1ccccc1CCC(=O)N1CCNC[C@H]1Cc1ccccc1` [Example 40, (R)—N-(2-(2-(3-(2-benzylpiperazin-1-yl)-3-oxopropyl)phenoxy)-5-methylbenzyl)acetamide], the IC50 is under 0.5 µM.

Take `COc1ccccc1OCC(=O)N1CCNC[C@H]1Cc1ccccc1` [Example 57, (R)-1-(2-benzylpiperazin-1-yl)-2-(2-methoxyphenoxy)ethanone]: the concentration for half-maximal inhibition (IC50) is over 50 µM.

`CC1(C)CC(C(CC(=O)N2CCNC[C@H]2Cc2ccccc2)c2ccccc2)CCO1` (stereo partly drawn) [Example 61, 1-((R)-2-benzylpiperazin-1-yl)-3-(2,2-dimethyltetrahydro-2H-pyran-4-yl)-3-phenylpropan-1-one]: the concentration for half-maximal inhibition (IC50) is under 0.5 µM.

With `NC(=O)c1cccc(Oc2ccccc2CCC(=O)N2CCNC[C@H]2Cc2ccccc2)c1` [Example 37, (R)-3-(2-(3-(2-benzylpiperazin-1-yl)-3-oxopropyl)phenoxy)benzamide], the IC50 was in the range of 0.5 to 5 µM.

As for `CC(=O)NCc1ccc(C)nc1Oc1cc(C)ccc1CCC(=O)N1CCNC[C@H]1Cc1ccccc1` [Example 44, (R)—N-((2-(2-(3-(2-benzylpiperazin-1-yl)-3-oxopropyl)-5-methylphenoxy)-6-methylpyridin-3-yl)methyl)acetamide], the 50% inhibitory concentration (IC50) lay within 0.5 to 5 µM.

Take `CC(=O)NCCc1ccccc1Cc1ccccc1CCC(=O)N1CCNC[C@H]1Cc1ccc(OCC(N)=O)cc1` [Example 89, (R)-2-(4-((1-(3-(2-(2-(2-acetamidoethyl)benzyl)phenyl)propanoyl)piperazin-2-yl)methyl)phenoxy)acetamide]: the IC50 was under 0.5 µM.

Turning to `CCOc1cccc(Oc2ccccc2CCC(=O)N2CCNC[C@H]2Cc2ccccc2)c1` [Example 32, (R)-1-(2-Benzylpiperazin-1-yl)-3-(2-(3-ethoxyphenoxy)phenyl)propan-1-one], the IC50 was 0.5 to 5 µM.

As to `CC(=O)NCCc1cc(C)ccc1Oc1ccccc1CCC(=O)N1CCNC[C@H]1Cc1ccccc1` [Example 49, (R)—N-(2-(2-(3-(2-benzylpiperazin-1-yl)-3-oxopropyl)phenoxy)-5-methylphenethyl)acetamide], the IC50 was under 0.5 µM.

For `CC(=O)NCCc1cc(C)ccc1Oc1cc(C)ccc1CCC(=O)N1CCNC[C@H]1Cc1ccccc1` [Example 27], the IC50 is under 0.5 µM.

Take `CC(=O)NCCc1ccccc1Cc1ccccc1CCC(=O)N1CCNC[C@H]1Cc1ccc(OCC(=O)O)cc1` [Example 90, (R)-2-(4-((1-(3-(2-(2-(2-acetamidoethyl)benzyl)phenyl)propanoyl)piperazin-2-yl)methyl)phenoxy)acetic acid]: the 50% inhibitory concentration (IC50) is under 0.5 µM.

With `O=C(CCN(c1ccccc1)c1ccccc1)N1CCNC[C@H]1Cc1ccccc1` [Example 58, (R)-1-(2-benzylpiperazin-1-yl)-3-(diphenylamino)propan-1-one], the IC50 is 5 to 50 µM.
